Literature values as cited in US20020010550A1, “PHARMACOKINETIC-BASED DRUG DESIGN TOOL AND METHOD” (priority 1998, published 2002).
Where two headings read alike, the source gives them in different places.

Experiments:
[1] = system: rabbit intestinal tissue (duodenum, jejunum, ileum, colon); conditions: donor concentration given with each compound
[2] = system: intestinal transport; conditions: permeability standards
[3] = Plasma Kinetics
[4] = human

Pe ([1]; Colon) [×10⁻⁶ cm/s] | Pe ([1]; Duodenum) [×10⁻⁶ cm/s] | Pe ([1]; Ileum) [×10⁻⁶ cm/s] | Pe ([1]; Jejunum) [×10⁻⁶ cm/s] | Transport mechanism [2] | Fluid Volume [3] | k12 [3] | k21 [3] | kelim [3] | bioavailability of fasted patients in clinical trials ([4]; fasted, oral) | absorption ([4]; in vivo) | in vivo biotransformation ([4]; in vivo) | Compound
9.28 | 4.55 | 14.5 | 10.2 | Carrier-mediated Influx |  |  |  |  |  |  |  | O=C[C@H](O)[C@@H](O)[C@H](O)[C@H](O)CO [D-glucose]
 |  |  |  |  | 76,800 ml | 0.839 | 0.670 | 0.161 | 3-20% | poorly absorbed | no in vivo biotransformation | Nc1nc2c(ncn2COC(CO)CO)c(=O)[nH]1.[Na] [Gancyclovir, 9-(1,3-dihydroxy-2-propoxymethyl)guanine, monosodium salt]
3.85 | 0.3 | 2.91 | 1.31 |  |  |  |  |  |  |  |  | C[C@]12CCC(=O)C=C1CC[C@@H]1[C@@H]2[C@@H](O)C[C@@]2(C)[C@H]1CC[C@]2(O)C(=O)CO [hydrocortisone]
5.53 | 1.73 | 4.02 | 3.54 | Passive Paracellular |  |  |  |  |  |  |  | OC[C@@H](O)[C@@H](O)[C@H](O)[C@H](O)CO [mannitol]
